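Interpolation was linear, between the two tested concentrations surrounding the appropriate level; five concentrations were tested over 48 hours in 96-well plates. Definition used: TGI = concentration required for complete inhibition of growth.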
What was measured:
Experiment in all cases: inhibition of tumour cell growth, NCI panel, 48 h
MCF7 breast = test system: MCF7 breast
HL-60(TB) leukemia = test system: HL-60(TB) leukemia
NCI-H23 lung = test system: NCI-H23 lung
MDA-MB-231 breast = test system: MDA-MB-231 breast
HT29 colon = test system: HT29 colon
MDA-MB-435 = test system: MDA-MB-435
NCI-H522 lung = test system: NCI-H522 lung
SK-MEL-2 melanoma = test system: SK-MEL-2 melanoma
SF-539 CNS = test system: SF-539 CNS
HCC-2998 colon = test system: HCC-2998 colon
OVCAR-8 ovarian = test system: OVCAR-8 ovarian
COLO 205 colon = test system: COLO 205 colon
HOP-92 NSCLC = test system: HOP-92 NSCLC
A549 NSCLC = test system: A549 NSCLC
SK-OV-3 ovarian = test system: SK-OV-3 ovarian
DU-145 prostate = test system: DU-145 prostate
TK-10 renal = test system: TK-10 renal
UACC-62 melanoma = test system: UACC-62 melanoma
OVCAR-4 ovarian = test system: OVCAR-4 ovarian
CAKI-1 renal = test system: CAKI-1 renal
SK-MEL-5 melanoma = test system: SK-MEL-5 melanoma
NCI-H460 lung = test system: NCI-H460 lung
CCRF-CEM leukemia = test system: CCRF-CEM leukemia
A498 renal = test system: A498 renal
SN12C renal = test system: SN12C renal
HS 578T breast = test system: HS 578T breast
M14 melanoma = test system: M14 melanoma
HOP-62 NSCLC = test system: HOP-62 NSCLC
SR leukemia = test system: SR leukemia
OVCAR-3 ovarian = test system: OVCAR-3 ovarian
BT-549 breast = test system: BT-549 breast
UACC-257 melanoma = test system: UACC-257 melanoma
SF-295 CNS = test system: SF-295 CNS
LOX IMVI melanoma = test system: LOX IMVI melanoma
EKVX NSCLC = test system: EKVX NSCLC
RPMI-8226 leukemia = test system: RPMI-8226 leukemia
IGROV1 ovarian = test system: IGROV1 ovarian
HCT-116 colon = test system: HCT-116 colon
MALME-3M melanoma = test system: MALME-3M melanoma
RXF 393 renal = test system: RXF 393 renal
KM12 colon = test system: KM12 colon
U251 CNS = test system: U251 CNS
SNB-19 CNS = test system: SNB-19 CNS
OVCAR-5 ovarian = test system: OVCAR-5 ovarian
SF-268 CNS = test system: SF-268 CNS
SK-MEL-28 melanoma = test system: SK-MEL-28 melanoma
NCI-H226 lung = test system: NCI-H226 lung
MOLT-4 leukemia = test system: MOLT-4 leukemia
HCT-15 colon = test system: HCT-15 colon
T-47D breast = test system: T-47D breast
SW-620 colon = test system: SW-620 colon
UO-31 renal = test system: UO-31 renal
ACHN renal = test system: ACHN renal
786-0 renal = test system: 786-0 renal
MDA-N = test system: MDA-N
NCI/ADR-RES ovarian = test system: NCI/ADR-RES ovarian
K-562 leukemia = test system: K-562 leukemia

C=Cc1c(C)c(O)cc2c1-c1ccc(O)c(C)c1CC2
TGI (MCF7 breast): 38.9 µM | TGI (HL-60(TB) leukemia): 38.6 µM | TGI (NCI-H23 lung): 41.3 µM | TGI (MDA-MB-231 breast): 60.6 µM | TGI (HT29 colon): 53.2 µM | TGI (MDA-MB-435): 28.2 µM | TGI (NCI-H522 lung): 43.1 µM | TGI (SK-MEL-2 melanoma): 35.5 µM | TGI (SF-539 CNS): 29.3 µM | TGI (HCC-2998 colon): 35.3 µM | TGI (OVCAR-8 ovarian): 39.4 µM | TGI (COLO 205 colon): 41.8 µM | TGI (HOP-92 NSCLC): 54.5 µM | TGI (A549 NSCLC): 55.7 µM | TGI (SK-OV-3 ovarian): 36.2 µM | TGI (DU-145 prostate): 28.5 µM | TGI (TK-10 renal): 41.4 µM | TGI (UACC-62 melanoma): 23.1 µM | TGI (OVCAR-4 ovarian): 92 µM | TGI (CAKI-1 renal): 46.2 µM | TGI (SK-MEL-5 melanoma): 33 µM | TGI (NCI-H460 lung): 45 µM | TGI (CCRF-CEM leukemia): 40.6 µM | TGI (A498 renal): 27.7 µM | TGI (SN12C renal): 43.1 µM | TGI (HS 578T breast): 21.7 µM | TGI (M14 melanoma): 52.5 µM | TGI (HOP-62 NSCLC): 83.8 µM | TGI (SR leukemia): 17.7 µM | TGI (OVCAR-3 ovarian): > 100 µM | TGI (BT-549 breast): 59.7 µM | TGI (UACC-257 melanoma): 28 µM | TGI (SF-295 CNS): 32.2 µM | TGI (LOX IMVI melanoma): 31.8 µM | TGI (EKVX NSCLC): 24.3 µM | TGI (RPMI-8226 leukemia): 56.6 µM | TGI (IGROV1 ovarian): 35.6 µM | TGI (HCT-116 colon): 28.4 µM | TGI (MALME-3M melanoma): 45.9 µM | TGI (RXF 393 renal): 30.2 µM | TGI (KM12 colon): 30 µM | TGI (U251 CNS): 34.3 µM | TGI (SNB-19 CNS): 74.5 µM | TGI (OVCAR-5 ovarian): > 100 µM | TGI (SF-268 CNS): 63.5 µM | TGI (SK-MEL-28 melanoma): 31.5 µM | TGI (NCI-H226 lung): 43 µM | TGI (MOLT-4 leukemia): 30.6 µM | TGI (HCT-15 colon): 44.5 µM | TGI (T-47D breast): 27.1 µM | TGI (SW-620 colon): 54.6 µM | TGI (UO-31 renal): 32.2 µM | TGI (ACHN renal): 81.1 µM | TGI (786-0 renal): 34 µM | TGI (MDA-N): 36.6 µM | TGI (NCI/ADR-RES ovarian): 71.8 µM

CCN(CC)CCNC(=O)c1cc2cc(NC(=O)c3cc4cc(N)ccc4[nH]3)ccc2[nH]1
TGI (MCF7 breast): 36.8 µM | TGI (NCI-H23 lung): > 100 µM | TGI (MDA-MB-231 breast): 73.4 µM | TGI (HT29 colon): > 100 µM | TGI (MDA-MB-435): 58 µM | TGI (NCI-H522 lung): 46.7 µM | TGI (SK-MEL-2 melanoma): > 100 µM | TGI (SF-539 CNS): 85.3 µM | TGI (HCC-2998 colon): 36.3 µM | TGI (OVCAR-8 ovarian): > 100 µM | TGI (COLO 205 colon): 25.6 µM | TGI (HOP-92 NSCLC): > 100 µM | TGI (A549 NSCLC): > 100 µM | TGI (SK-OV-3 ovarian): > 100 µM | TGI (DU-145 prostate): 47.1 µM | TGI (TK-10 renal): > 100 µM | TGI (UACC-62 melanoma): 59.3 µM | TGI (OVCAR-4 ovarian): 27.7 µM | TGI (CAKI-1 renal): > 100 µM | TGI (NCI-H460 lung): > 100 µM | TGI (CCRF-CEM leukemia): 38.9 µM | TGI (A498 renal): > 100 µM | TGI (SN12C renal): > 100 µM | TGI (HS 578T breast): > 100 µM | TGI (M14 melanoma): 77.1 µM | TGI (HOP-62 NSCLC): > 100 µM | TGI (SR leukemia): 55 µM | TGI (BT-549 breast): > 100 µM | TGI (UACC-257 melanoma): > 100 µM | TGI (SF-295 CNS): > 100 µM | TGI (EKVX NSCLC): > 100 µM | TGI (RPMI-8226 leukemia): 74.5 µM | TGI (HCT-116 colon): 79.7 µM | TGI (RXF 393 renal): 61.3 µM | TGI (KM12 colon): 28 µM | TGI (U251 CNS): > 100 µM | TGI (K-562 leukemia): > 100 µM | TGI (SNB-19 CNS): > 100 µM | TGI (OVCAR-5 ovarian): > 100 µM | TGI (SF-268 CNS): > 100 µM | TGI (SK-MEL-28 melanoma): > 100 µM | TGI (MOLT-4 leukemia): 48.5 µM | TGI (HCT-15 colon): > 100 µM | TGI (T-47D breast): > 100 µM | TGI (SW-620 colon): > 100 µM | TGI (UO-31 renal): > 100 µM | TGI (ACHN renal): > 100 µM | TGI (786-0 renal): > 100 µM | TGI (MDA-N): > 100 µM | TGI (NCI/ADR-RES ovarian): > 100 µM
